MIC data for two molecules are collected here from patent US5328902A, “7-(substituted)-9-[(substituted glycyl)amido]-6-demethyl-6-deoxytetracyclines” (American Cyanamid Co., priority 1992, dated 1994).

Common to all, as to format: cell-based
Assay [1] has as its system S. hemolyticus AVHAH 88-3. As to the kind of experiment: MIC, agar dilution. The conditions noted are these: S. hemolyticus AVHAH 88-3. (In general: In agar dilution, organisms are placed on agar that contains the substance at set levels.)
The subject of another assay is E. coli #311 (MP). Put plainly: MIC, agar dilution. The conditions noted are these: E. coli #311 (MP).
The test system of another assay is S. aureus UBMS 90-3. As to the kind of experiment: MIC, agar dilution. The conditions noted are these: S. aureus UBMS 90-3.
In assay [2] the test system is S. aureus UBMS 90-2 Tet M. As to the kind of experiment: microbe, parasite or virus in culture. The conditions noted are these: S. aureus UBMS 90-2 Tet M.
The test system of assay [3] is S. aureus UBMS 90-1 Tet M. Put plainly: microbe, parasite or virus in culture. The conditions noted are these: S. aureus UBMS 90-1 Tet M.
For the next assay, the system named is Enterococcus 12201. Put plainly: MIC, agar dilution. As to conditions: Enterococcus 12201.
In another assay the test system is E. coli UBMS 90-5. As to the kind of experiment: MIC, agar dilution.
The subject of a further assay is E. coli J2175. As to the kind of experiment: MIC, agar dilution. As to conditions: E. coli J2175.
A further assay concerns S. aureus UBMS 88-4. Put plainly: MIC, agar dilution. As to conditions: S. aureus UBMS 88-4.
In assay [4] the test system is E. coli UBMS 89-2 Tet sens. Put plainly: MIC, agar dilution. The conditions noted are these: E. coli UBMS 89-2 Tet sens.
The subject of the next assay is S. mariescens FPOR 8733. Put plainly: MIC, agar dilution.
In a further assay the test system is S. aureus IVES 2943. As to the kind of experiment: MIC, agar dilution. The conditions noted are these: S. aureus IVES 2943.
The subject of assay [5] is E. coli MC 4100 Tet sens. As to the kind of experiment: MIC, agar dilution.
The next assay relates to S. aureus ATCC 29213. As to the kind of experiment: MIC, agar dilution. As to conditions: S. aureus ATCC 29213.
For the next assay, the system named is E. coli UBMS 88-1 Tet B. Put plainly: microbe, parasite or virus in culture. As to conditions: E. coli UBMS 88-1 Tet B; 18 hours at 35° C.
Assay [6] deals with S. aureus UBMS 88-7 Tet K. Put plainly: microbe, parasite or virus in culture. The conditions noted are these: S. aureus UBMS 88-7 Tet K.
Assay [7] has as its system Ps. acruginosa ATCC 27853. As to the kind of experiment: MIC, agar dilution. As to conditions: Ps. acruginosa ATCC 27853.
In a further assay the test system is E. coli ATCC 25922. Put plainly: MIC, agar dilution. The conditions noted are these: E. coli ATCC 25922.
For another assay, the system named is E. coli UBMS 89-1 Tet M. Put plainly: microbe, parasite or virus in culture. As to conditions: E. coli UBMS 89-1 Tet M.
A further assay relates to E. faecalis ATCC 29212. As to the kind of experiment: MIC, agar dilution. As to conditions: E. faecalis ATCC 29212.
The test system of assay [8] is S. aureus UBMS 88-5 Tet M. Put plainly: microbe, parasite or virus in culture. As to conditions: S. aureus UBMS 88-5 Tet M.
Another assay deals with S. aureus IVES 1 983. Put plainly: MIC, agar dilution. As to conditions: S. aureus IVES 1 983.
For the next assay, the system named is S. aureus NEMC 8769. As to the kind of experiment: MIC, agar dilution. As to conditions: S. aureus NEMC 8769.
The test system of the next assay is E. coli J3272 Tet D. As to the kind of experiment: microbe, parasite or virus in culture. As to conditions: E. coli J3272 Tet D.
Another assay concerns E. coli BAJ9003 IMP MUT. Put plainly: microbe, parasite or virus in culture. The conditions noted are these: E. coli BAJ9003 IMP MUT.
The test system of another assay is S. aureus SMITH (MP). Put plainly: MIC, agar dilution. As to conditions: S. aureus SMITH (MP).
In another assay the test system is E. coli UBMS 90-4 Tet M. As to the kind of experiment: microbe, parasite or virus in culture. The conditions noted are these: E. coli UBMS 90-4 Tet M.
Another assay deals with E. coli PRP1 Tet A. As to the kind of experiment: microbe, parasite or virus in culture. As to conditions: E. coli PRP1 Tet A.
Another assay concerns S. aureus ROSE (MP). Put plainly: MIC, agar dilution. The conditions noted are these: S. aureus ROSE (MP).

Converted amounts (≈) assume the structure as drawn. Where only a bound is given, the exact number is not on record here.

`CN(C)c1cc(NC(=O)CNCC(F)(F)F)c(O)c2c1CC1CC3C(N(C)C)C(O)=C(C(N)=O)C(=O)C3(O)C(O)=C1C2=O` (stereo not drawn) [S, [4S-(4alpha,12aalpha)]-4,7-Bis(dimethylamino)-1,4,4a,5,5a,6,11,12a-octahydro-3,10, 12,12a-tetrahydroxy-1,11-dioxo-9-[[[2,2,2-trifluoroethyl)amino]acetyl]amino-2-naphthacenecarboxamide]: the MIC in [1] was 16 µg/mL (≈ 26.2 µM); in the assay with E. coli #311 (MP) it was more than 32 µg/mL; against S. aureus UBMS 90-3, 4 µg/mL (≈ 6.54 µM); in [2], 4 µg/mL (≈ 6.54 µM); in assay [3], 16 µg/mL (≈ 26.2 µM); in the assay on Enterococcus 12201, 4 µg/mL (≈ 6.54 µM). Also, the MIC against E. coli UBMS 90-5 was more than 32 µg/mL; in the assay on E. coli J2175 it was more than 32 µg/mL; against S. aureus UBMS 88-4 it was 4 µg/mL (≈ 6.54 µM); in assay [4], more than 32 µg/mL; with S. mariescens FPOR 8733 it was more than 32 µg/mL; in the assay with S. aureus IVES 2943, more than 32 µg/mL. Moreover, the MIC was 16 µg/mL (≈ 26.2 µM) in assay [5]; 4 µg/mL (≈ 6.54 µM) against S. aureus ATCC 29213; 32 µg/mL (≈ 52.3 µM) in the assay with E. coli UBMS 88-1 Tet B; 32 µg/mL (≈ 52.3 µM) in assay [6]; more than 32 µg/mL in assay [7]; more than 32 µg/mL in the assay on E. coli ATCC 25922. Moreover, the MIC is 32 µg/mL (≈ 52.3 µM) with E. coli UBMS 89-1 Tet M; 2 µg/mL (≈ 3.27 µM) with E. faecalis ATCC 29212; 8 µg/mL (≈ 13.1 µM) in [8]; more than 32 µg/mL against S. aureus IVES 1 983; 4 µg/mL (≈ 6.54 µM) against S. aureus NEMC 8769.

For “[4S-(4alpha,12aalpha)]-4,7-Bis(dimethylamino)-1,4,4a,5,5a,6,11,12a-octahydro-3,10, 12,12a-tetrahydroxy-1,11-dioxo-9-[[(undecylamino)acetyl]amino]-2-naphthacenecarboxamide dihydrochloride”, the MIC in the assay on E. coli J3272 Tet D worked out at 32 µg/mL; in the assay with E. coli #311 (MP), 8 µg/mL; with S. aureus UBMS 90-3, 0.5 µg/mL; in [2] it was 4 µg/mL; in the assay on E. coli BAJ9003 IMP MUT, 1 µg/mL; in assay [3], 16 µg/mL. Also, the MIC is 4 µg/mL against Enterococcus 12201; 0.5 µg/mL with S. aureus SMITH (MP); 0.5 µg/mL against S. aureus UBMS 88-4; more than 32 µg/mL against S. mariescens FPOR 8733; 2 µg/mL in assay [5]; 1 µg/mL against S. aureus ATCC 29213. In addition, the MIC against E. coli UBMS 88-1 Tet B is 32 µg/mL; in assay [6] it was 2 µg/mL; in [7], more than 32 µg/mL; in the assay with E. coli UBMS 90-4 Tet M, 32 µg/mL; in the assay on E. coli UBMS 89-1 Tet M, 16 µg/mL; with E. faecalis ATCC 29212, 2 µg/mL. In addition, the MIC in the assay on E. coli PRP1 Tet A stood at 32 µg/mL; in [8], 16 µg/mL; against S. aureus NEMC 8769, 0.5 µg/mL; against S. aureus ROSE (MP), 16 µg/mL.
